Source: patent publication US20260027068A1, “METHODS OF ADM[…]-KETAMINE” (Perception Neuroscience, Inc., priority 2022, published 2026)

Assay: Respiratory rate (vital signs)
Conditions: 60 mg
Procedure: The Investigational Medicinal Product (IMP) R(−)-ketamine hydrochloride in sterile water for intravenous injection was investigated as an […] treatment of TRD. The International Union of Pure and Applied Chemistry (IUPAC) name is of the IMP is (2R)-2-(2-chlorophenyl)-2-(methylamino)cyclohexan-1-one. Subjects received the solution at either 30 mg or 60 mg dose, or a placebo. The IMP or placebo was administered on Day 1 as a single IV infusion via an electronic infusion pump over 40 minutes. The duration of study participation for each subject was up to 29 days including a screening period, a 3-day in-clinic visit, and 2 follow-up visits. 101 subjects were enrolled in approximately 20 study centers in the EU and the US.
Tympanic or temporal temperature, heart rate, blood pressure (SBP/DBP), respiratory rate, and SpO2 were assessed. Blood pressure and pulse measurements will be assessed with a completely automated device while the subject is supine or semi-supine. Manual techniques will be used only if an automated device is not available. Blood pressure and pulse measurements should be preceded by at least 5 minutes of rest for the subject in a quiet setting without distractions (e.g., television, cell phones). An abnormal blood pressure value at screening may be repeated once after 5 minutes of relaxation to determine the subject's eligibility. Blood pressure was recorded using the same arm and position (supine or semi-supine) throughout the study, where possible. Vital signs (to be taken before blood collection for laboratory tests) consisted of 1 pulse and 3 blood pressure measurements (3 consecutive blood pressure readings will be recorded at intervals of at least 1 minute). The average of the 3 blood pressure readings was recorded in the CRF. A pulse oximeter was used to measure peripheral capillary oxygen saturation (SpO2) continuously from pre-dose until 4-hours post-dose. A pulse oximeter was clipped onto the finger or foot of the subject, and light will be sent through the finger or foot and measured on the other side.
In these tables, baseline value is defined as the last non-missing value prior to study drug administration.

CN[C@@]1(c2ccccc2Cl)CCCCC1=O.Cl [R(−)-ketamine, (2R)-2-(2-chlorophenyl)-2-(methylamino)cyclohexan-1-one]
Respiratory Rate, Max (Day 1, 15 minutes): 18 breaths/minute
Respiratory Rate, Mean (Day 1, 15 minutes): 15.5 breaths/minute
Respiratory Rate, Median (Day 1, 15 minutes): 15.0 breaths/minute
Respiratory Rate, Min (Day 1, 15 minutes): 14 breaths/minute
Respiratory Rate, Max (Day 1, 40 minutes): 23 breaths/minute
Respiratory Rate, Mean (Day 1, 40 minutes): 15.9 breaths/minute
Respiratory Rate, Median (Day 1, 40 minutes): 16.0 breaths/minute
Respiratory Rate, Min (Day 1, 40 minutes): 12 breaths/minute
Respiratory Rate, Max (Day 1, 60 minutes): 16 breaths/minute
Respiratory Rate, Mean (Day 1, 60 minutes): 15.2 breaths/minute
Respiratory Rate, Median (Day 1, 60 minutes): 16.0 breaths/minute
Respiratory Rate, Min (Day 1, 60 minutes): 12 breaths/minute
Respiratory Rate, Max (Day 1, 2 hours): 19 breaths/minute
Respiratory Rate, Mean (Day 1, 2 hours): 15.5 breaths/minute
Respiratory Rate, Median (Day 1, 2 hours): 16.0 breaths/minute
Respiratory Rate, Min (Day 1, 2 hours): 11 breaths/minute
Respiratory Rate, Max (Day 1, 4 hours): 20 breaths/minute
Respiratory Rate, Mean (Day 1, 4 hours): 15.9 breaths/minute
Respiratory Rate, Median (Day 1, 4 hours): 16.0 breaths/minute
Respiratory Rate, Min (Day 1, 4 hours): 12 breaths/minute
Respiratory Rate, Max (Day 1, 6 hours): 20 breaths/minute
Respiratory Rate, Mean (Day 1, 6 hours): 15.7 breaths/minute
Respiratory Rate, Median (Day 1, 6 hours): 16.0 breaths/minute
Respiratory Rate, Min (Day 1, 6 hours): 12 breaths/minute
Respiratory Rate, Max (Day 2 - Discharge): 20 breaths/minute
Respiratory Rate, Mean (Day 2 - Discharge): 15.9 breaths/minute
Respiratory Rate, Median (Day 2 - Discharge): 16.0 breaths/minute
Respiratory Rate, Min (Day 2 - Discharge): 12 breaths/minute
Respiratory Rate, Max (Day 8): 18 breaths/minute
Respiratory Rate, Mean (Day 8): 15.7 breaths/minute
Respiratory Rate, Median (Day 8): 16.0 breaths/minute
Respiratory Rate, Min (Day 8): 12 breaths/minute
Respiratory Rate, Max (Day 15): 20 breaths/minute
Respiratory Rate, Mean (Day 15): 15.8 breaths/minute
Respiratory Rate, Median (Day 15): 16.0 breaths/minute
Respiratory Rate, Min (Day 15): 12 breaths/minute
Respiratory Rate, Change from Baseline, Max (to Day 1, 15 minutes): 2 breaths/minute
Respiratory Rate, Change from Baseline, Mean (to Day 1, 15 minutes): −0.6 breaths/minute
Respiratory Rate, Change from Baseline, Median (to Day 1, 15 minutes): −1.0 breaths/minute
Respiratory Rate, Change from Baseline, Min (to Day 1, 15 minutes): −4 breaths/minute
Respiratory Rate, Change from Baseline, Max (to Day 1, 40 minutes): 4 breaths/minute
Respiratory Rate, Change from Baseline, Mean (to Day 1, 40 minutes): −0.0 breaths/minute
Respiratory Rate, Change from Baseline, Median (to Day 1, 40 minutes): 0.0 breaths/minute
Respiratory Rate, Change from Baseline, Min (to Day 1, 40 minutes): −4 breaths/minute
Respiratory Rate, Change from Baseline, Max (to Day 1, 60 minutes): 1 breaths/minute
Respiratory Rate, Change from Baseline, Mean (to Day 1, 60 minutes): −0.8 breaths/minute
Respiratory Rate, Change from Baseline, Median (to Day 1, 60 minutes): −1.0 breaths/minute
Respiratory Rate, Change from Baseline, Min (to Day 1, 60 minutes): −4 breaths/minute
Respiratory Rate, Change from Baseline, Max (to Day 1, 2 hours): 2 breaths/minute
Respiratory Rate, Change from Baseline, Mean (to Day 1, 2 hours): −0.5 breaths/minute
Respiratory Rate, Change from Baseline, Median (to Day 1, 2 hours): 0.0 breaths/minute
Respiratory Rate, Change from Baseline, Min (to Day 1, 2 hours): −4 breaths/minute
Respiratory Rate, Change from Baseline, Max (to Day 1, 4 hours): 3 breaths/minute
Respiratory Rate, Change from Baseline, Mean (to Day 1, 4 hours): −0.1 breaths/minute
Respiratory Rate, Change from Baseline, Median (to Day 1, 4 hours): 0.0 breaths/minute
Respiratory Rate, Change from Baseline, Min (to Day 1, 4 hours): −4 breaths/minute
Respiratory Rate, Change from Baseline, Max (to Day 1, 6 hours): 6 breaths/minute
Respiratory Rate, Change from Baseline, Mean (to Day 1, 6 hours): −0.2 breaths/minute
Respiratory Rate, Change from Baseline, Median (to Day 1, 6 hours): 0.0 breaths/minute
Respiratory Rate, Change from Baseline, Min (to Day 1, 6 hours): −8 breaths/minute
Respiratory Rate, Change from Baseline, Max (to Day 2 - Discharge): 4 breaths/minute
Respiratory Rate, Change from Baseline, Mean (to Day 2 - Discharge): −0.0 breaths/minute
Respiratory Rate, Change from Baseline, Median (to Day 2 - Discharge): 0.0 breaths/minute
Respiratory Rate, Change from Baseline, Min (to Day 2 - Discharge): −4 breaths/minute
Respiratory Rate, Change from Baseline, Max (to Day 8): 4 breaths/minute
Respiratory Rate, Change from Baseline, Mean (to Day 8): −0.2 breaths/minute
Respiratory Rate, Change from Baseline, Median (to Day 8): 0.0 breaths/minute
Respiratory Rate, Change from Baseline, Min (to Day 8): −6 breaths/minute
Respiratory Rate, Change from Baseline, Max (to Day 15): 6 breaths/minute
Respiratory Rate, Change from Baseline, Mean (to Day 15): −0.1 breaths/minute
Respiratory Rate, Change from Baseline, Median (to Day 15): 0.0 breaths/minute
Respiratory Rate, Change from Baseline, Min (to Day 15): −3 breaths/minute
